≈ marks a conversion by molar mass, not a printed value.
Assays:
[1] = Solubility in individual solvents; assay type: physicochemical
Protocol: (§1) The solubility of betulinic acid and its derivatives was determined in various individual solvents. Based on the solubility of betulinic acid in these particular vehicles, it was then attempted to enhance the solubility of betulinic acid by mixing different solvents according to the principles of co-solvency (Spiegel and Noseworthy, 1963, Yalkowsky and Roseman, 1981). Different solvent systems were evaluated to arrive at a suitable relevant stock composition. The stock composition would then be diluted with a final solvent or intravenous solution to yield a working formulation of 0.001-40 mg/ml.
(§2) Several methods and compositions were evaluated for their ability to solubilize betulinic acid and its derivatives in water miscible, physiologically acceptable vehicles. The solvents that were tried included DMA, dimethylsulfoxide (DMSO), absolute ethanol, glycerin, polyethylene glycols (PEGs) and propylene glycol, in addition to the aqueous diluting fluids normal saline, and 2-25% dextrose in solution.

[2] = Amount of drug dissolved in solvent/co-solvent/solubilizer compositions; assay type: physicochemical
Protocol: as §1, §2
A concentrated solution of betulinic acid or its derivatives was prepared by dissolving 50-200 mg of betulinic acid or its derivatives in 1 ml of DMA. The above stock solution was diluted with PEG (polyethylene glycol, MW 300) in a ratio of 1:4 to a concentration of 10-40 mg/ml.
(§3) In the following examples one or more co-solvents with a solubilizers or a combination of (solubilizers) was added to keep the drug in solution after diluting with an aqueous intravenous diluting fluid.

[3] = Clarity / precipitation on dilution of the composition with aqueous diluting fluid; assay type: physicochemical
Protocol: as §1, §2, §3

[4] = tested on: cultured human melanoma cells; conditions: cited from earlier work
[5] = tested on: human melanomas; conditions: cited from earlier work
[6] = Example 6: DMA 50% v/v, Tween 80 50% w/v

C=C(C)[C@@H]1CC[C@]2(C(=O)O)CC[C@]3(C)[C@H](CC[C@@H]4[C@@]5(C)CC[C@H](O)C(C)(C)[C@@H]5CC[C@]43C)[C@@H]12 [betulinic acid]
solubility ([1]; Absolute ethanol, organic solvent or mixture, Absolute ethanol, varies depending upon the derivative, read-out: SOLUBILITY): 3000 to 10000 µg/mL (≈ 6.57 to 21.9 mM) | solubility ([1]; Dimethylsulfoxide (DMSO), organic solvent or mixture, Dimethylsulfoxide (DMSO), read-out: SOLUBILITY): ≤ 100000 µg/mL | solubility ([1]; Glycerin): insoluble | solubility ([1]; N,N-dimethylacetamide (DMA), organic solvent or mixture, N,N Dimethylacetamide (DMA), read-out: SOLUBILITY): ≤ 250000 µg/mL | solubility ([1]; Polyethylene glycols (MW 200, 300, 400), organic solvent or mixture, Polyethylene glycols (MW 200, 300, 400), read-out: SOLUBILITY): < 5000 µg/mL | solubility ([1]; Propylene glycol, organic solvent or mixture, Propylene glycol, read-out: SOLUBILITY): < 5000 µg/mL | solubility ([1]; Water): insoluble | solubility ([1]; most of the aqueous solvents): insoluble | drug concentration the composition could dissolve [2, 6]: ≤ 20000 µg/mL | drug concentration the composition could dissolve ([2]; Example 7: Absolute ethanol 20-40% v/v, Tween 80 60-80% w/v): ≤ 20000 µg/mL | drug concentration the composition could dissolve ([2]; Example 8: Absolute ethanol 65% v/v, Tween 80 5% w/v, PEG 300 30% v/v): up to 6 mg/ml | drug concentration the composition could dissolve ([2]; Example 9: Absolute ethanol 35% v/v, Tween 80 15% w/v, PEG 300 50% v/v): up to 4 mg/ml | drug concentration that could be dissolved in the compositions ([2]; Example 16: DMA 20-50% v/v, PEG 300 20-40% v/v, Tween 80 5-30% w/v): Up to 22 mg/ml | drug concentration the compositions could dissolve ([2]; Examples 12 and 13: DMA 20% v/v, MYRJ 52 20-30% w/v, Tween 20-50% w/v, with or without PEG 300 40% v/v): ≤ 20000 µg/mL | drug concentration the compositions could dissolve ([2]; Examples 14 and 15: DMA 20% v/v, Tween 80 20% w/v, PEG 300 55-57% v/v, Poloxamer 407 3% w/v or Lecithin 5% w/v): 2000 to 15000 µg/mL | solubility ([2]; organic solvent or mixture, Examples 10 and 11: DMA 10-20% v/v, Propylene glycol 10-20% v/v, Absolute ethanol 30-35% v/v, Tween 80 35-40% w/v, read-out: concentration range soluble in the system): 2000 to 15000 µg/mL | behaviour on dilution with the aqueous diluting fluid ([3]; Example 3: 50 mg drug, DMA 20% v/v, PEG 300 80% v/v, even at concentrations as low as 0.001-0.1 mg/ml): immediate precipitation | behaviour on dilution with the aqueous diluting fluid ([3]; Example 3: 200 mg drug, DMA 20% v/v, PEG 300 80% v/v): immediately precipitated out | behaviour on dilution with aqueous diluting fluid ([3]; Example 4: 50 mg drug, DMA 50% v/v, PEG 300 50% v/v, diluted with 2-25% dextrose or normal saline): gave a viscous solution which gels over time although there are no signs of any precipitation of drug | behaviour on dilution with aqueous diluting fluid [3, 6]: immediately precipitated out | time the drug solution remained clear on dilution ([3]; Example 7: Absolute ethanol 20-40% v/v, Tween 80 60-80% w/v, diluted with aqueous diluting fluid to 0.3-1.4 mg/ml): ≤ 3 h | behaviour on dilution with aqueous diluting fluid ([3]; Example 8: Absolute ethanol 65% v/v, Tween 80 5% w/v, PEG 300 30% v/v, diluted to 0.08-0.4 mg/ml): remained clear | behaviour on dilution with aqueous diluting fluid ([3]; Example 9: Absolute ethanol 35% v/v, Tween 80 15% w/v, PEG 300 50% v/v, diluted to 0.08 to 0.4 mg/ml): remained clear | behaviour on dilution with aqueous diluting fluid ([3]; Example 9 composition, diluted outside the range 0.08 to 0.4 mg/ml): immediate precipitation | time the composition remained clear without any precipitation on dilution ([3]; Example 16: DMA 20-50% v/v, PEG 300 20-40% v/v, Tween 80 5-30% w/v, diluted with aqueous diluting fluid to 0.1-10 mg/ml): more than 5 days | behaviour on dilution with an aqueous diluting fluid ([3]; Examples 10 and 11 compositions, at a lower concentration of 0.012-2 mg/ml): remains clear | behaviour on dilution with aqueous diluting fluid ([3]; Examples 12 and 13 compositions containing MYRJ 52, diluted to 0.1-1.0 mg/ml): precipitated out in a few hours | behaviour on dilution with the aqueous diluting fluid ([3]; Examples 14 and 15 compositions, only at lower dilutions (0.001-1 mg/ml)): remained soluble | cytotoxicity [4]: melanoma-specific cytotoxic agent | tumor growth ([5]; athymic mice carrying human melanomas): completely inhibited | toxicity ([5]; mouse, in vivo): without toxicity

From US6656970B2, “Method and compositions for solubilization of pentacyclic triterpenes” (Dabur Research Foundation, priority 2000, dated 2003)
